Here are results for 8 compounds from patent US5053508A, “Fused heterotricyclic imides with psychotropic activity and intermedrates thereof” (American Home Products Corporation, priority 1990, dated 1991).

One assay relates to Male CD rats. The experiment in a line: conditioned avoidance (shelf-jump response) test. In kind it is in vivo. Particulars: i.p. The source says: A test designed to determine the potential antipsychotic activity of the compounds of the invention is the conditioned avoidance (shelf-jump response) test.
Male CD rats (Charles River) maintained at approximately 400-450 gm body weight are used. […] A moveable wall, controlled by a motor, determines whether the rat has access to the shelf at any time during the experiment. The experimental chamber also contains a house light and sonalert. A steel grid floor in the main chamber is wired for presentation of electric shock. Each trial consists of a fifteen-second warning tone (conditioned stimulus), continuing for an additional fifteen seconds accompanied by electric shock (unconditioned stimulus). A response (jumping onto the exposed shelf of the upper chamber) occurring during the initial fifteen-second warning tone is considered an avoidance response, while a response occurring during shock delivery is considered an escape response. Trials are presented on a fixed interval schedule of one minute. The session consists of thirty-six trials. Animals are run twice weekly with control sessions always preceding a drug run, and with at least one day intervening. Compounds are administered i.p. or p.o. at appropriate pre-treatment times to a minimum of five rats at each dose level over a range of doses.
The following experimental parameters are recorded by computer: (1) the number of avoidance responses, (2) the number of escape responses, and (3) the number of trials in which no response occurred.
Response counts are summed over all subjects at a given dose. […] This number is expressed as a percentage of the total trials. Control performance is arbitrarily assigned a value of 100% for avoidance responding and the dose calculated to produce a 50% block in avoidance responding (AB50) is obtained from a dose-effect regression line fitted by the method of least squares. Potential antipsychotic compounds suppress avoidance responding and increase escape responding.
Compound `CC1=NOC2C3CC(C12)C1C(=O)N(CCCCN2CCN(c4cncc(Cl)n4)CC2)C(=O)C31.O=C(O)C(=O)O` (stereo not drawn) [Example 6, 6-[4-[4-(6-chloro-2-pyrazinyl)-1-piperazinyl]butyl]-3a,4,4a,7a,8,8a-hexahydro-3-methyl-4,8-methano-5H-pyrrolo[3,4-f]-1,2-benzisoxazole-5,7(6H)-dione, ethanedioate (1:1)] showed an Active at of 40 mg/kg.

For the compound `CC1=NOC2C3CC(C12)C1C(=O)N(CCCCN2CCN(c4cnccn4)CC2)C(=O)C31` (stereo not drawn) [Example 7, 6-[4-[4-(2-pyrazinyl)-1-piperazinyl]butyl]-3a,4,4a,7a,8,8a-hexahydro-3-methyl-4,8-methano-5H-pyrrolo[3,4-f]-1,2-benzisoxazole-5,7(6H)-dione, ethanedioate (1:1), hemiethanolate], the Active at stood at 40 mg/kg.

`CC1=NOC2C3CCC(C12)C1C(=O)N(CCCCN2CCN(c4cnccn4)CC2)C(=O)C31.O=C(O)C(=O)O` (stereo not drawn) [Example 11, 6-[4-[4-(2-pyrazinyl)-1-piperazinyl]butyl]-3a,4,4a,7a,8,8a-hexahydro-3-methyl-4,8-ethano-5H-pyrrolo[3,4-f]-1,2-benzisoxazole-5,7(6H)-dione, ethanedioate (1:1)]: the Active at is reported as 40 mg/kg.

The compound “6-[4-[4-2-pyrimidinyl)-1-piperazinyl]butyl]-3a,4,4a,7a,8,8a-hexahydro-3-methyl-4,8-methano-5H-pyrrolo[3,4-f]-1,2-benzisoxazole-5,7(6H)-dione, dihydrochloride, hydrate [Example 8]” registered an Active at of 40 mg/kg.

Turning to `CC1=NOC2C3CCC(C12)C1C(=O)N(CCCCN2CCN(c4ncccn4)CC2)C(=O)C31.O=C(O)C(=O)O` (stereo not drawn) [Example 10, 6-[4-[4-(2-pyrimidinyl)-1-piperazinyl]butyl]-3a,4,4a,7a,8,8a-hexahydro-3-methyl-4,8-ethano-5H-pyrrolo[3,4-f]-1,2-benzisoxazole-5,7(6H)-dione, ethanedioate (1:1)], the Active at is reported as 40 mg/kg.

In turn, `Cl.O=C1C2C3CS(=O)(=O)CC3C2C(=O)N1CCCCN1CCN(c2cncc(Cl)n2)CC1` (stereo not drawn) [Example 1, 5-[4-[4-(6-chloro-2-pyrazinyl)-1-piperazinyl]butyl]tetrahydro-1H-thieno[3',4':3,4]cyclobuta[1,2-c]pyrrole-4,6(3H,5H)-dione 2,2 dioxide hydrochloride] displayed an Active at of 40 mg/kg.

The compound `Cl.O=C1C2C3CS(=O)(=O)CC3C2C(=O)N1CCCCN1CCN(c2nccnc2Cl)CC1` (stereo not drawn) [Example 2, 5-[4-[4-(3-chloro-2-pyrazinyl)-1-piperazinyl]butyl]tetrahydro-1H-thieno[3',4':3,4]cyclobuta[1,2-c]pyrrole-4,6(3H,5H)dione 2,2-dioxide, hydrochloride] came in with an Active at of 40 mg/kg.

Still in this assay, the particulars now being: p.o.
Compound `Cl.O=C1C2C3CS(=O)(=O)CC3C2C(=O)N1CCCCN1CCN(c2cncc(Cl)n2)CC1` (stereo not drawn) [Example 1, 5-[4-[4-(6-chloro-2-pyrazinyl)-1-piperazinyl]butyl]tetrahydro-1H-thieno[3',4':3,4]cyclobuta[1,2-c]pyrrole-4,6(3H,5H)-dione 2,2 dioxide hydrochloride] returned an Active at of 40 mg/kg.

A further assay has as its system dopamine receptor.
Test: not given
As to conditions: i.p.; result in words.
Take `O=C1CC2(CCCC2)CC(=O)N1CCCCN1CCN(c2ncccn2)CC1` [Buspirone, 8-[4-[4-(2-pyrimidinyl)-1-piperazinyl]butyl]-8-azaspiro[4.5]decane-7,9-dione]: the “activity in the apomorphine-induced stereotyped behavior assay” value is “inactive”.
